In PubChem BioAssay (NCI):
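Five concentrations, 48 hours, 96-well plates. TGI is the concentration that stops growth completely.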

Tests used:
Assay in all cases: growth of human tumour cells (NCI), 48 h
[1] = system: 786-0 renal
[2] = system: A498 renal
[3] = system: A549 NSCLC
[4] = system: ACHN renal
[5] = system: BT-549 breast
[6] = system: CAKI-1 renal
[7] = system: COLO 205 colon
[8] = system: DU-145 prostate
[9] = system: EKVX NSCLC
[10] = system: HCC-2998 colon
[11] = system: HCT-116 colon
[12] = system: HCT-15 colon
[13] = system: HL-60(TB) leukemia
[14] = system: HOP-62 NSCLC
[15] = system: HOP-92 NSCLC
[16] = system: HT29 colon
[17] = system: IGROV1 ovarian
[18] = system: KM12 colon
[19] = system: LOX IMVI melanoma
[20] = system: M14 melanoma
[21] = system: MALME-3M melanoma
[22] = system: MCF7 breast
[23] = system: MDA-MB-435
[24] = system: MDA-N
[25] = system: MOLT-4 leukemia
[26] = system: NCI-H23 lung
[27] = system: NCI-H460 lung
[28] = system: NCI-H522 lung
[29] = system: NCI/ADR-RES ovarian
[30] = system: OVCAR-3 ovarian
[31] = system: OVCAR-4 ovarian
[32] = system: OVCAR-5 ovarian
[33] = system: OVCAR-8 ovarian
[34] = system: RPMI-8226 leukemia
[35] = system: RXF 393 renal
[36] = system: SF-268 CNS
[37] = system: SF-295 CNS
[38] = system: SF-539 CNS
[39] = system: SK-MEL-28 melanoma
[40] = system: SK-MEL-5 melanoma
[41] = system: SK-OV-3 ovarian
[42] = system: SN12C renal
[43] = system: SNB-19 CNS
[44] = system: SNB-75 CNS
[45] = system: SR leukemia
[46] = system: SW-620 colon
[47] = system: TK-10 renal
[48] = system: UACC-257 melanoma
[49] = system: UACC-62 melanoma
[50] = system: UO-31 renal
[51] = system: CCRF-CEM leukemia
[52] = system: HS 578T breast
[53] = system: K-562 leukemia
[54] = system: MDA-MB-231 breast
[55] = system: NCI-H226 lung
[56] = system: PC-3 prostate
[57] = system: SK-MEL-2 melanoma
[58] = system: T-47D breast
[59] = system: U251 CNS

CCOC(=O)/C(=C\NC#N)c1nc2ccccc2[nH]1
TGI [1]: > 100 µM
TGI [2]: > 100 µM
TGI [3]: > 100 µM
TGI [4]: > 100 µM
TGI [5]: > 100 µM
TGI [6]: > 100 µM
TGI [7]: > 100 µM
TGI [8]: > 100 µM
TGI [9]: > 100 µM
TGI [10]: > 100 µM
TGI [11]: > 100 µM
TGI [12]: > 100 µM
TGI [13]: > 100 µM
TGI [14]: > 100 µM
TGI [15]: > 100 µM
TGI [16]: > 100 µM
TGI [17]: > 100 µM
TGI [18]: > 100 µM
TGI [19]: > 100 µM
TGI [20]: > 100 µM
TGI [21]: > 100 µM
TGI [22]: > 100 µM
TGI [23]: > 100 µM
TGI [24]: > 100 µM
TGI [25]: > 100 µM
TGI [26]: > 100 µM
TGI [27]: > 100 µM
TGI [28]: > 100 µM
TGI [29]: > 100 µM
TGI [30]: > 100 µM
TGI [31]: > 100 µM
TGI [32]: > 100 µM
TGI [33]: > 100 µM
TGI [34]: > 100 µM
TGI [35]: > 100 µM
TGI [36]: > 100 µM
TGI [37]: > 100 µM
TGI [38]: > 100 µM
TGI [39]: > 100 µM
TGI [40]: > 100 µM
TGI [41]: > 100 µM
TGI [42]: > 100 µM
TGI [43]: > 100 µM
TGI [44]: > 100 µM
TGI [45]: > 100 µM
TGI [46]: > 100 µM
TGI [47]: > 100 µM
TGI [48]: > 100 µM
TGI [49]: > 100 µM
TGI [50]: 6.28 µM

COc1cc(C(=O)OC2CC(C)=CC[C@@]3(C)CC[C@](O)(C(C)C)C23)ccc1O (some centres not stated)
TGI [1]: 31.3 µM
TGI [2]: 33.7 µM
TGI [3]: 27.7 µM
TGI [4]: 32.6 µM
TGI [6]: 30.4 µM
TGI [51]: 69 µM
TGI [7]: 39 µM
TGI [8]: 32.4 µM
TGI [9]: 34.6 µM
TGI [10]: 28.8 µM
TGI [11]: 33.1 µM
TGI [12]: 35.3 µM
TGI [13]: > 100 µM
TGI [14]: 32.4 µM
TGI [15]: 30.5 µM
TGI [52]: 40.9 µM
TGI [16]: 29.8 µM
TGI [17]: 33.4 µM
TGI [53]: 38.3 µM
TGI [18]: 29.9 µM
TGI [19]: 30.6 µM
TGI [20]: 33.1 µM
TGI [21]: 34.3 µM
TGI [22]: 28.9 µM
TGI [54]: 30.5 µM
TGI [23]: > 100 µM
TGI [24]: 35.2 µM
TGI [25]: 40.6 µM
TGI [55]: 32.5 µM
TGI [26]: 32.6 µM
TGI [27]: 32.5 µM
TGI [28]: 28 µM
TGI [29]: 37.6 µM
TGI [30]: 35.5 µM
TGI [31]: 30 µM
TGI [32]: 32.6 µM
TGI [33]: 36.6 µM
TGI [56]: 31.9 µM
TGI [34]: 53.1 µM
TGI [35]: 35.4 µM
TGI [36]: 38.7 µM
TGI [37]: 51.9 µM
TGI [38]: 29.7 µM
TGI [57]: 33.2 µM
TGI [39]: 60.2 µM
TGI [40]: 32.8 µM
TGI [41]: 29.1 µM
TGI [42]: 37.2 µM
TGI [43]: 35.8 µM
TGI [44]: 33.5 µM
TGI [45]: 84.1 µM
TGI [46]: 55.3 µM
TGI [58]: 47.6 µM
TGI [47]: 30.1 µM
TGI [59]: 67 µM
TGI [48]: 29.6 µM
TGI [50]: 30.4 µM
